The values that follow are results of earlier work, collected in patent US20220323445A1, “REDUCING IMMUNOGENICITY TO PEGLOTICASE” (Horizon Therapeutics Ireland DAC, priority 2020, published 2022).

The conditions of data set [1]: prophylaxis of gout; cited from earlier work.
The conditions of data set [2]: patients treated with allopurinol; cited from earlier work.

As for `COc1cc2c(c(OC)c1OC)-c1ccc(OC)c(=O)cc1[C@@H](NC(C)=O)CC2` [colchicine], the pharyngolaryngeal pain in data set [1] is recorded as 3%.

Regarding `Oc1ncnc2[nH]ncc12` [allopurinol], in data set [2], the “patients who develop allergic reactions” value is reported as “Approximately 2%” and the severe hypersensitivity syndrome result is “about 0.4%”.
